One block for each substance: values may come before it.
Tests used:
[1] = design: species or system rats; conditions: rat, in vivo
Description: The effect of S-NOCCs (N-sulphated N,O-carboxymethyl chitosans) as primary carriers in vivo was tested using rats. Male Wistar rats (SPF status, approximately 250 g) were obtained from Charles River (NL). The animals were fasted for 16 hours before administration with free access to water. The animals were anesthetized with Hypnorm (fentanyl citrate) and Dormicum (midazolam). The body temperature of the rats was kept at 36-37° C. and was monitored throughout the experiment.
Reviparin LMWH (Reviparin, Knoll, 108 Anti-XaU/mg) solution was prepared in physiological saline at 625 anti Xa U/ml.
S-NOCC was tested at two viscosities 40 and 60 cps (S-NOCC40 and S-NOCC60), representing a lower and higher molecular weight chitinous polymer respectively. The S-NOCCs were dissolved at 3% (w/v) in the reviparin solution to form a viscous gel.
In order to administer the LMWH formulations, a thin Teflon tube (˜1 mm i.d.) was used for the control (no polymer). In order to administer the S-NOCC formulations, a polypropylene tube with i.d. ˜3 mm was used to facilitate the viscous gels for their administration. Both tubes were connected to a syringe.
The abdomen of the animals was opened by an incision and the stomach was moved towards the incision point. A small incision at the stomach was made to allow each tube to be guided via the pylorus to the beginning of the duodenum (first 2-3 cm.). Formulation were administered slowly over 5 min and at +/− 2 ml normalized for the body weight of each animal to assure administration of 5000 Anti-Xa U/kg.
Blood samples, ˜225 μl, were collected from the tail vein capillaries (after incision) in Eppendorf vials containing 25 μl sodium citrate 3.8%. The samples were centrifuged at 13000 rpm for 20 min.
Analysis of samples was performed using the Chromostrate heparin Anti-Xa assay (Organon Teknika, NL). […] The release of pNA was measured by an end-point method at 405 nm in an EL808 ultra microplate reader (Biotek Instruments Inc.). […]

Caco-2 cells = experiment: TEER of Caco-2 cells treated with sulphated chitinous polymers; assay type: cell-based
Description: The Caco-2 intestinal epithelial cells used in this example form apically tight junctions that seal the paracellular pathways. Disruption of the tight junctions' barrier leads to increased paracellular permeability of hydrophilic drugs that are poorly absorbed across the intestine. The integrity of the tight junctions can be determined by measuring decreases in the transepithelial electrical resistance (TEER) when the tight junctions are opened.
Caco-2 cell cultures were seeded initially from cryovials (stored in liquid nitrogen) to flasks and treated with trypsin. After trypsin treatment, cells were seeded on the Costar Transwell filters (24-well plates, Costar Europe, Badhoevedorp, The Netherlands) at a seeding density of 10^4 cells/cm^2. Dulbecco's Modified Eagle's Medium (DMEM, Sigma, Bornem; Belgium; pH=7.4), supplemented with 1% nonessential amino acids, 10%, fetal calf serum (Hyclone, Greiner, The Netherlands), benzyl-penicillin G (160 U/ml) and streptomycin sulfate (100 μg/ml) (Sigma) was used as culture medium, and was added to both the donor and the acceptor compartment. […]
S-OCC(N-sulphated O-carboxymethyl chitosan), S-NOCC(N-sulphated N,O-carboxymethyl chitosan), and S-SAN (N-sulphated chitosan) were applied on the Caco-2 cell cultures and TEER was measured for 4 hours. […] The TEER was also recorded at 24 hrs after application to investigate the viability of the monolayers.

absorption of the LMWH (plasma anti-Xa level, relative to antithrombotic level) [1]: ≥ 0.2 Anti-Xa U/ml
time over which absorption of LMWH was sustained [1]: 6 h
Substance: N-sulphated N,O-carboxymethyl chitosan [S-NOCC40]

intestinal absorption of LMWH [1]: limited
Substance: Reviparin [reference compound]

Substance: Sulphated Chitosan [S-SAN]
disruption of the tight junctions between Caco-2 epithelial cells (Caco-2 cells): able to effectively disrupt the tight junctions
